Measurements taken from patent EP0100983A1, “Steroid compounds with choleretic activity, a process for their preparation, and therapeutic compounds which contain them as active principle” (PROTER S.p.A., priority 1982, dated 1984).
Structures can show the parent of a compound that is named as a salt.

Key:
Wistar rats = assay: Acute toxicity by oral administration in the rat; assay type: in vivo
Method: Acute toxicity was also tested by oral administration of the acid A and the salt B in the rat in comparison with ursodeoxycholic acid. 60 Wistar rats of the two sexes were used having an average weight of 200 g, divided randomly into three batches of 10 males and 10 females and treated orally by gastric probe with the following products: • batch 1: ursodeoxycholic acid (C) - 15% suspension in a 10% solution of gum arabic; […] equivalent to 3 g/kg of product; • batch 2: product (A) - 15% suspension in a 10% solution of gum arabic: 20 ml/kg equivalent to 3 g/kg of product; • batch 3: product (B) - 15% suspension in a 10% solution of gum arabic: 20 ml/kg equivalent to 3 g/kg of product.
The animals, kept under observation for two weeks, registered no case of death or other toxicity symptom.

[1] = system: male albino rats of Wistar stock; assay: Choleretic activity in bile-duct (choledocus) cannulated rats, method of D'Armour and coll.: bile flow (test a) and bile dry residue (test b); assay type: in vivo; conditions: rat
Description: By way of example, details are given of the activity of 3α,7β-dihydroxy-6/3-cholan-24-oyl acetic acid (A) and of its trimebutine salt (B) compared with ursodeoxycholic acid (C), using the method of D'Armour and coll. (J. Pharmacol. Exp. Theor. 133, 400 (1961)).
This method consists essentially of cannulating the choledocus of the treated animals and collecting the bile before and after treatment with the drugs.
24 male albino rats of Wistar stock were used having an average weight of 400 g and divided into 4 batches of 6 animals each.
In the method used, after the surgical cannulation, the bile was allowed to flow out for about 30-45 minutes in order to regulate the flow, after which the basic bile was collected for 60 minutes.
After this time, the drug was administered into the subpyloric duodenal tract at a dose of 0.5 mM/kg, and the bile was collected in suitable graduated test tubes, the samples of each animal being split into periods of exactly 60 minutes, for a time of 3 hours after treatment. The following were then determined for each animal: • a) the quantity of bile which had flown out after each hour, and • b) the dry residue obtained after drying each sample under vacuum.
The tested compounds were solubilised with stoichiometric quantities of M NaOH, to obtain solutions or suspensions at pH 10.
Physiological solution (S.F.) adjusted to pH 10 by M NaOH was used for the control group.
The data obtained in the described experiments by administering equimolar doses of the products A and B and of the comparison drug C are shown on the accompanying graphs.

guinea pig ileum = assay: In vitro antispastic activity on the guinea pig ileum against acetylcholine bromide; conditions: relative to trimebutine hydrochloride
Description: Compound B was also used in "in vibro" antispastic activity tests on the guinea pig ileum, using acetylcholine bromide as […] in canparison with trimebutine hydrochloride.

For `CC(CCC(=O)OCC(=O)O)C1CCC2C3C(O)CC4CC(O)CCC4(C)C3CCC12C` (stereo not drawn) [A, 3α,7β-dihydroxy-6β-cholan-24-oyl acetic acid], the “tolerability when administered orally in a single dose” value (Wistar rats; single oral dose 3 g/kg) was “very well tolerated”, the “maximum intensity action on the bile flow” value ([1]; 0.5 mM/kg into the subpyloric duodenal tract, compared with ursodeoxycholic acid (C) at equal dose, Figure 1) was “practically equivalent to that of the comparison drug” and the “activity on the bile flow after 1 hour” value ([1]; 0.5 mM/kg intraduodenal, 1 hour after treatment, relative to comparison drug C, Figure 1) was “slightly less”. For the same compound, the “activity on the bile flow after 2 hours” value ([1]; 0.5 mM/kg intraduodenal, 2 hours after treatment, relative to comparison drug C, Figure 1) was “greater” and the “dry residual content of the bile (indicative of the bile salt content), maximum values” ([1]; 0.5 mM/kg intraduodenal, compared with ursodeoxycholic acid, Figure 2) was “practically equal to that obtained after treatment with ursodeoxycholic acid”.
`CC(CCC(=O)OCC(=O)O)C1CCC2C3C(O)CC4CC(O)CCC4(C)C3CCC12C` (stereo not drawn) [Compound B, 2-dimethylamino-2-phenylbutyl 3,4,5-trimethoxybenzoate salt of 3α ,7β-dihydroxy-6β-cholan-24-oyl acetic acid] was tested, and the “toxicity (concluding statement)” value (Wistar rats; oral) was “absolute absence of toxicity”, the “activity on the bile flow after 3 hours” value ([1]; 0.5 mM/kg intraduodenal, 3 hours after treatment, Figure 1) was “high” and the antispastic activity (guinea pig ileum) was “approximately double that of trimebutine”.
For `C[C@H](CCC(=O)O)[C@H]1CC[C@H]2[C@@H]3[C@@H](O)C[C@@H]4C[C@H](O)CC[C@]4(C)[C@H]3CC[C@]12C` [ursodeoxycholic acid, 3α ,7β-dihydroxy-6β-cholan-24-oic acid, reference compound], the “duration of the action” value ([1]; 0.5 mM/kg intraduodenal, bile dry residue test (Figure 2)) was 1 h.
